Assays:
[1] = tested on: Barnyardgrass (Echinochloa crus-galli); experiment: Postemergence herbicidal activity, greenhouse spray; type: in vivo; details: Echinochloa crus-galli, post-emergence, 336 h, visual score after 2 weeks, read-out: Post-emergent % control ECHCG; for pest or weed control at 500 ppm / pest or weed control at 250 ppm: Table 1; for pest or weed control at 500 ppm: rate 500 ppm; for pest or weed control at 250 ppm: rate 250 ppm; for pest or weed control at 125 ppm: Table 2, rate 125 ppm
How it was run: (§1)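 Postemergence application by compressed-air atomizer ([…]) onto plants at the 1-2 true leaf stage; rates set by serial dilution of acetone:DMSO stock into the spray carrier. Plants were kept in a greenhouse with ~15 hr photoperiod and sub-irrigated.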

[2] = tested on: Lambsquarter (Chenopodium album); experiment: as above; type: in vivo; details: Chenopodium album, post-emergence, 336 h, visual score after 2 weeks, read-out: Post-emergent % control CHEAL; for pest or weed control at 500 ppm / pest or weed control at 250 ppm: Table 1; for pest or weed control at 500 ppm: rate 500 ppm; for pest or weed control at 250 ppm: rate 250 ppm; for pest or weed control at 125 ppm: Table 2, rate 125 ppm
How it was run: as §1

[3] = tested on: Yellow nutsedge (Cyperus esculentus); experiment: as above; type: in vivo; details: Cyperus, post-emergence, 336 h, visual score after 2 weeks, read-out: Post-emergent % control CYPES; for pest or weed control at 500 ppm / pest or weed control at 250 ppm: Table 1; for pest or weed control at 500 ppm: rate 500 ppm; for pest or weed control at 250 ppm: rate 250 ppm; for pest or weed control at 125 ppm: Table 2, rate 125 ppm
How it was run: as §1

[4] = tested on: Cocklebur (Xanthium strumarium); experiment: as above; type: in vivo; details: Xanthium strumarium, post-emergence, 336 h, visual score after 2 weeks, read-out: Post-emergent % control XANST; for pest or weed control at 500 ppm / pest or weed control at 250 ppm: Table 1; for pest or weed control at 500 ppm: rate 500 ppm, 0 no injury, 100 complete kill; for pest or weed control at 250 ppm: rate 250 ppm; for pest or weed control at 125 ppm: Table 2, rate 125 ppm
How it was run: as §1

[5] = tested on: Giant Foxtail (Setaria faberi); experiment: Preemergence herbicidal activity, soil spray; type: in vivo; details: Setaria faberi, pre-emergence, 504 h, Table 5, visual score after 3 weeks, read-out: Pre-emergent % control SETFA; for pest or weed control at 140 ppm: rate 140 ppm; for pest or weed control at 560 ppm: rate 560 ppm
How it was run: (§2)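 Seeds were sown in a 70:30 loam–sand mix (pH about 8.1, about 1.5% organic matter), and test compound from acetone:DMSO 97:3 stocks, diluted in 99.9:0.1 water:Tween 155, was sprayed evenly on the soil surface before emergence. Pots were held in a greenhouse under an approximate 15 hr photoperiod with top-irrigation.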

[6] = tested on: Lambsquarter (Chenopodium album); experiment: Preemergence herbicidal activity, soil spray; type: in vivo; details: Chenopodium album, pre-emergence, 504 h, Table 5, visual score after 3 weeks, read-out: Pre-emergent % control CHEAL; for pest or weed control at 140 ppm: rate 140 ppm; for pest or weed control at 560 ppm: rate 560 ppm, 100 complete kill or no germination
How it was run: as §2

[7] = tested on: Pigweed (redroot) (Amaranthus retroflexus); experiment: Preemergence herbicidal activity, soil spray; type: in vivo; details: Amaranthus retroflexus, pre-emergence, 504 h, Table 5, visual score after 3 weeks, read-out: Pre-emergent % control AMARE; for pest or weed control at 140 ppm: rate 140 ppm; for pest or weed control at 560 ppm: rate 560 ppm
How it was run: as §2

[8] = tested on: Crabgrass(large) (Digitaria sanguinalis); experiment: Preemergence herbicidal activity, soil spray; type: in vivo; details: Digitaria sanguinalis, pre-emergence, 504 h, Table 5, visual score after 3 weeks, read-out: Pre-emergent % control DIGSA; for pest or weed control at 140 ppm: rate 140 ppm; for pest or weed control at 560 ppm: rate 560 ppm
How it was run: as §2

Compound | pest or weed control at 500 ppm [1] | pest or weed control at 500 ppm [2] | pest or weed control at 500 ppm [3] | pest or weed control at 500 ppm [4] | melting point | pest or weed control at 250 ppm [1] | pest or weed control at 125 ppm [1] | pest or weed control at 250 ppm [2] | pest or weed control at 125 ppm [2] | pest or weed control at 250 ppm [3] | pest or weed control at 125 ppm [3] | pest or weed control at 250 ppm [4] | pest or weed control at 125 ppm [4] | pest or weed control at 560 ppm [5] | pest or weed control at 560 ppm [6] | pest or weed control at 560 ppm [7] | pest or weed control at 560 ppm [8] | also measured
Cc1ccc(-c2nc(C(=O)O)c(F)c(N)c2F)cc1 [Compound 203, 4-Amino-3,5-difluoro-6-(4-methylphenyl)pyridine-2-carboxylic acid] | 95% | 100% | 95% | 100% | 144 to 145 °C | – | – | – | – | – | – | – | – | – | – | – | – | pest or weed control at 140 ppm [5]: 85%; pest or weed control at 140 ppm [6]: 95%; pest or weed control at 140 ppm [7]: 100%; pest or weed control at 140 ppm [8]: 100%
Nc1c(F)c(-c2ccc3c(c2)CCO3)nc(C(=O)O)c1Cl [Compound 197, 4-Amino-3-chloro-5-fluoro-6-(2,3-dihydro-5-benzofuranyl)pyridine-2-carboxylic acid] | – | – | – | – | 171 °C | 90% | 85% | 100% | 100% | 95% | 85% | 100% | 100% | 100% | 100% | 100% | 100% | –
Cc1cccc(-c2cc(N)c(Cl)c(C(=O)O)n2)c1 [Compound 138, 4-Amino-3-chloro-6-(3-methylphenyl)pyridine-2-carboxylic acid] | – | – | – | – | 173 to 175 °C | 50% | – | 100% | – | 20% | – | 100% | – | 98% | 100% | 100% | 100% | –
COC(=O)c1nc(-c2ccc(Cl)cc2Cl)c(F)c(N)c1Cl [Compound 88, Methyl 4-amino-3-chloro-5-fluoro-6-(2,4-dichlorophenyl)pyridine-2-carboxylate] | – | – | – | – | 122 °C | 85% | 85% | 100% | 100% | 95% | 95% | 100% | 100% | 70% | 100% | 100% | 70% | –
COC(=O)c1nc(-c2ccc(Cl)cc2)cc(N)c1Cl [Compound 19, Methyl 4-amino-3-chloro-6-(4-chlorophenyl)pyridine-2-carboxylate] | – | – | – | – | 132 °C | 80% | – | 95% | – | 90% | – | 100% | – | 100% | 100% | 100% | 100% | –
Nc1c(F)c(-c2ccc3c(c2)OCO3)nc(C(=O)O)c1Cl [Compound 196, 4-Amino-3-chloro-5-fluoro-6-(3,4-methylenedioxyphenyl)pyridine-2-carboxylic acid] | – | – | – | – | 169 °C | 100% | 100% | 100% | 100% | 98% | 100% | 100% | 100% | 100% | 100% | 100% | 100% | –
Cc1cc(-c2cc(N)c(Cl)c(C(=O)O)n2)ccc1Cl [Compound 149, 4-Amino-3-chloro-6-(4-chloro-3-methylphenyl)pyridine-2-carboxylic acid] | 95% | 100% | 100% | 100% | 190 to 191 °C | – | – | – | – | – | – | – | – | – | – | – | – | pest or weed control at 140 ppm [5]: 100%; pest or weed control at 140 ppm [6]: 100%; pest or weed control at 140 ppm [7]: 100%; pest or weed control at 140 ppm [8]: 100%
COC(=O)c1nc(-c2ccc3c(c2)OCO3)c(F)c(N)c1Cl [Compound 84, Methyl 4-amino-3-chloro-5-fluoro-6-(3,4-methylenedioxyphenyl)pyridine-2-carboxylate] | – | – | – | – | 160 °C | 98% | 98% | 100% | 100% | 100% | 90% | 100% | 100% | 100% | 100% | 100% | 100% | –
Nc1c(Cl)c(C(=O)O)nc(-c2ccc(Cl)cc2)c1Cl [Compound 198, 4-Amino-3,5-dichloro-6-(4-chlorophenyl)pyridine-2-carboxylic acid] | 90% | 100% | 90% | 100% | 164 to 165 °C | – | 70% | – | 100% | – | 98% | – | 100% | 90% | 100% | 100% | 80% | –
Nc1cc(-c2cccc(Cl)c2)nc(C(=O)O)c1Cl [Compound 143, 4-Amino-3-chloro-6-(3-chlorophenyl)pyridine-2-carboxylic acid] | 70% | 100% | 40% | 100% | 171 °C | – | – | – | – | – | – | – | – | 100% | 100% | 100% | 100% | –
Nc1cc(-c2ccc(Cl)cc2F)nc(C(=O)O)c1Cl [Compound 168, 4-Amino-3-chloro-6-(4-chloro-2-fluorophenyl)pyridine-2-carboxylic acid] | 85% | 100% | 90% | 100% | 162 to 163 °C | – | – | – | – | – | – | – | – | – | – | – | – | pest or weed control at 140 ppm [5]: 100%; pest or weed control at 140 ppm [6]: 100%; pest or weed control at 140 ppm [7]: 100%; pest or weed control at 140 ppm [8]: 100%

Reference: patent publication US6784137B2, “6-aryl-4-aminopicolinates and their use as herbicides” (Dow AgroSciences LLC, priority 2001, dated 2004)
